The assay has as its system Mycobacterium tuberculosis. Description: Antimicrobial activity against Mycobacterium bovis BCG after 3 days by broth microdilution method. Format: functional. To be noted: variant bovis BCG, 72 h. On the technique in general: Broth dilution looks for growth in wells or tubes with falling amounts of substance.

Each structure is given as a SMILES string.

`C[C@@H]1C[C@@H](O)[C@]2(O)O[C@@H]3C[C@@]4(C=O)[C@@H](CC[C@@H]5[C@@H]4CC[C@]4(C)[C@@H](C6=CC(=O)OC6)C[C@@H](O)[C@]54O)C[C@H]3O[C@@H]2C1` had an MIC of more than 80 µg/mL. Next, `CO[C@@H]1C[C@@H](C)C[C@H]2O[C@@H]3C[C@@H]4CC[C@@H]5[C@H](CC[C@]6(C)[C@@H](C7=CC(=O)OC7)C[C@@H](O)[C@]56O)[C@@]4(C=O)C[C@H]3O[C@@]12O`: more than 80 µg/mL; `C[C@@H]1C[C@@H](O)[C@]2(O)O[C@@H]3C[C@@]4(C)[C@@H](CC[C@@H]5[C@@H]4CC[C@]4(C)[C@@H](C6=CC(=O)OC6)C[C@@H](O)[C@]54O)C[C@H]3O[C@@H]2C1`: more than 80 µg/mL; `C[C@H]1C[C@H]2O[C@@H]3C[C@@H]4CC[C@@H]5[C@H](CC[C@]6(C)[C@@H](C7=CC(=O)OC7)CC[C@]56O)[C@@]4(C=O)C[C@H]3O[C@@]2(O)[C@H](O)[C@@H]1O`: more than 80 µg/mL. The compound `C[C@H]1C[C@H]2O[C@@H]3C[C@@H]4CC[C@@H]5[C@H](CC[C@]6(C)[C@@H](C7=CC(=O)OC7)C[C@@H](O)[C@]56O)[C@@]4(C=O)C[C@H]3O[C@@]2(O)[C@@]2(C1)N=CCS2` gave an MIC of more than 80 µg/mL. `C[C@]12[C@H](O)C[C@H]3[C@@H](CC[C@H]4C[C@H](O)CC[C@@]43CO)[C@@]1(O)CC[C@@H]2C1=CC(=O)OC1`: the minimal inhibitory concentration (MIC) was more than 80 µg/mL. In turn, `C[C@]12[C@H](O)C[C@H]3[C@@H](CC[C@H]4C[C@H](O)CC[C@@]43C=O)[C@@]1(O)CC[C@@H]2C1=CC(=O)OC1` had an MIC of more than 80 µg/mL.

The compound `C[C@]12C[C@@H](O)[C@H](O)C[C@@H]1CC[C@@H]1[C@@H]2CC[C@]2(C)[C@@H](C3=CC(=O)OC3)C[C@@H](O)[C@]12O` displayed an MIC of more than 80 µg/mL. Compound `C[C@]12[C@H](O)C[C@H]3[C@@H](CC[C@H]4C[C@@H](O)CC[C@@]43CO)[C@@]1(O)CC[C@@H]2C1=CC(=O)OC1` showed an MIC of more than 80 µg/mL.

`C[C@@H]1C[C@@H](O)[C@]2(O)O[C@@H]3C[C@@]4(C=O)[C@@H](CC[C@@H]5[C@@H]4CC[C@]4(C)[C@@H](C6=CC(=O)OC6)CC[C@]54O)C[C@H]3O[C@@H]2O1` [CALACTIN] gave a minimal inhibitory concentration (MIC) of more than 80 µg/mL. In the case of `C[C@@H]1C[C@@]2(N=CCS2)[C@]2(O)O[C@@H]3C[C@@]4(C=O)[C@@H](CC[C@@H]5[C@@H]4CC[C@]4(C)[C@@H](C6=CC(=O)OC6)CC[C@]54O)C[C@H]3O[C@@H]2O1` [USCHARIN] it was more than 80 µg/mL.

What is called MIC is the lowest concentration found to suppress growth. A lower MIC goes with greater potency.

For the origin of these results see ChEMBL document CHEMBL3616435, “Cytotoxic cardenolides from the latex of Calotropis procera” (Bioorg Med Chem Lett, 2015).
